Common to all, as to type: biochemical
The target of test [1] is T1, pertussis toxin (Bordetella pertussis, UniProt P04977). Nature of the test: Screen of compounds at 1 mM for stimulation of the NADase activity of the toxin (Example Three). Conditions: for Emax at 1000 µM / Fractional Activation: compound 1 mM, relative to 1 mM ATP, toxin preincubated with 20 mM DTT and 2% CHAPS, 3 h at 37° C, average ± half range of two trials; for Emax at 1000 µM: read-out: Fractional Activation. The text has this:
The ADP-ribosylating activity of the pertussis toxin can be detected as a nicotinamide-adenine dinucleotide-glycohydrolase (NADase) activity, which can be conveniently assayed through the use of [nicotinamide-^14 C] or [nicotinamide-^3 H] NAD. NAD consists of ADP-ribose linked to nicotinimide, and thus the extent of the release of ADP-ribose from NAD is an indication of the ability of the toxin to cause ill effects. In conducting this assay of the hydrolysis of labelled NAD, ion-exchange column chromatography was employed to resolve the product from the substrate according to the method described by Moss et al., J. Biol. Chem. 258, 11879 (1983) which is incorporated herein by reference. However, several modifications to this method were employed. First, a QAE-Sephadex resin was employed, as was a [nicotinamide-^3 H] NAD. Specifically, a 2 ml QAE-Sephadex column was first washed with 10 ml 1NHCl, followed by 10 ml H2 O, 20 ml 0.5M Tris-HCl pH 7.0, and 40 ml H2 O. [^3 H] NAD was applied, and the column washed with 20 ml water to elute impurities. Purified [^3 H] NAD was eluted with 0.25M NaCl, and stored in small aliquots at -70° C. The purified [^3 H] NAD contributed 50 mM NaCl (final concentration) to the NADase assays.
Before the end of the reaction, 2 ml QAE-Sephadex columns were treated with 10 ml 0.1M imidazole-HCl pH 7.0 with 1.0M NaCl, followed by 40 ml water. The NADase reaction (in 100 μl) was terminated by adding 0.85 ml of ice-cold water, and the entire 0.95 ml was pipetted into a treated QAE column. The labelled nicotinamide was then eluted with 3 ml of water directly into a scintillation vial and counted. The absorbed labelled NAD was then eluted into radioactive waste with 10 ml 0.1M imidazole-HCl pH 7.0 with 1.0M NaCl, and the column stored partially immersed in a water bath until the next assay.
(§1) The pertussis toxin in the Examples comprised 50 μg of the toxin in a 500 μl solution of 10 mM sodium phosphate-50 mM sodium chloride-water solution having a pH of 7. The enzymatic activity was detected as the hydrolysis of nicotinamide labelled NAD and ion-exchange column chromatography to resolve the product from the substrate. Unless otherwise noted, the assay was initiated by adding 0.5 to 2.5 μg of the toxin to a reaction mixture for a final volume of 100 μl. The NADase reaction was terminated by adding 0.85 ml of ice-cold water. The entire 0.95 ml was then pipetted into a QAE-Sephadex column (chloride form) and the labelled nicotinamide eluted with 3 ml of water directly into a scintillation vial and counted. […] One unit of NADase activity is defined as 1 pmol NAD hydrolyzed per hour.
The various compounds were screened for the ability to stimulate the NADase activity of the toxin when present in a concentration of 1 mM. Before assay the toxin (1 μg per assay) was incubated at 37° C. for ten minutes with 20 mM DTT and 2 weight percent CHAPS. Assays were for three hours at 37° C., and fractional activation is defined as activity of the compound less the activity in the absence of an activator divided by the activity in the presence of 1 mM ATP less activity in the absence of the activator. The value given is the average plus one-half the range for two separate trials. In each trial, duplicates were measured. […] The results are shown in Table II, wherein P denotes phosphate.

The target of test [2] is T1, pertussis toxin. In words: Inactivation of NADase activity by sulfhydryl reagents, 6 minutes or 18 hours at 0-4° (Example Eight). Conditions: first incubation: ATP, DTT, CHAPS. As for the experimental part: (§2) Pertussis toxin was incubated at 37° C. for fifteen minutes as described in Example Six, and then a second incubation was begun by adding 10 μl buffer A with or without 12.5 mM iodoacetate, mixing the contents of the tube and lowering the temperature to 30° C. After fifteen minutes, the tubes were shifted to an ice bath for ten minutes. A third incubation was then begun by adding 10 μl buffer A containing 200 mM DTT to those tubes containing iodoacetate to scavenge the iodoacetate. To those tubes not containing iodoacetate during the second incubation, a mixture of 200 mM DTT and 12.5 mM iodoacetate in buffer A, previously incubated for an hour on ice, was added. The third incubation was continued for one hour on ice.
(§3) The contents of each tube were then assayed for NADase activity by adding 40 μl of a reaction mix consisting of buffer A containing carbon-14 labelled NAD (final concentration in the 100 μl final volume was 25 μM), and 50 mM sodium chloride. Different reaction mixtures with various additions were used, so that in all tubes the final concentration of ATP was 1 mM and CHAPS was 1 weight percent. The assay was conducted at 37° C. for sixty minutes, and the released labelled nicotinimide was isolated and counted. The iced controls were formed by incubating pertussis toxin (1 μg) on ice in 10 mM sodium phosphate (pH 7) and 50 mM sodium chloride during the first three incubations. […] The first three incubations were done under a nitrogen atmosphere using degassed conditions, and the second and third incubations were done under subdued light.
The procedure followed in Example Seven was repeated for this study, except that N-ethylmaleimide, chloroacetamide or chloroacetate were substituted for iodoacetate. After the 30° C. incubation, the tubes were either incubated for six minutes or eighteen hours at 0°-4° C. before the 10 μl of 200 mM DTT (with or without quenched reagent) was added. Those tubes receiving the DTT after six minutes were incubated for nineteen hours at 0°-4° C. prior to the NADase assay. Those receiving the DTT after eighteen hours were incubated with DTT for one hour, as in Example Seven. The tubes were then assayed for NADase activity at the same time.

The target in test [3] is T1, pertussis toxin. In words: Activation constants (A0.5) of polyphosphates by NADase assay. Conditions: for EC50 / fraction of the ATP effect: in the presence of a mild detergent. The protocol: In the description herein, activation constants for the substances may be expressed by a numerical value (A0.5) by using an NADase assay.
as §1

In test [4] the target is T1, pertussis toxin. In words: Inactivation of NADase activity by iodoacetate after different activator combinations (Example Seven). Conditions: additions to first incubation only (DTT 1 mM, ATP 1 mM, CHAPS 1%); second incubation none; read-out: Percent NADase activity relative to iced control. As for the experimental part:
Pertussis toxin was incubated first at 37° C. for fifteen minutes in […] buffer A (100 mM Tris-HCl, pH 8.0 with 1 mM NaEDTA). EDTA was added to chelate divalent cations, which may promote oxidation of free --SH groups. During this incubation, DTT and ATP were present in concentrations of 1 mM each, and CHAPS was present in a concentration of 1 weight percent. Labelled iodoacetate was then added ([…], 12.5 mM), and the tube incubated on ice for twenty hours. The sample was then mixed with sodium dodecylsulfate and β-mercaptoethanol, heated at 95° C. for one minute, and electrophoresed. After electrophoresis, the gel was fixed, treated with Fluorohance (Research Products International), dried and used to expose x-ray film.
as §2, §3

The mark [5] stands for this setting: FIGS. 1A and 1B, read-out: activation constants (A0.5).

Each structure is given as a SMILES string. Several values for one entry are separate records, joined by “and”; a condition that tells them apart may be missing. Identical values can stand only once. Like-named read-outs stand apart in the source and are kept apart here.

T1 sequence (P04977 35-269 limits assumed): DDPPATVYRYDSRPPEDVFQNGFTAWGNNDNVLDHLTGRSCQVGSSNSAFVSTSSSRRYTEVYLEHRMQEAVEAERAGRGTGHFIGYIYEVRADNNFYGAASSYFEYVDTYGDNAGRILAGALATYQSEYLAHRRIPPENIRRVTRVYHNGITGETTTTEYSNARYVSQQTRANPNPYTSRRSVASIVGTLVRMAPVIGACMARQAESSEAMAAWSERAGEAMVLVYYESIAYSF

On to `NC(Cc1ccc(OP(=O)(O)O)cc1)C(=O)O` (stereo not shown) [tyrosine-P], for which, on pertussis toxin [1], the Emax at 1000 µM turned out to be 2 ± 2%.

With `NC(=O)CCl` [chloroacetamide], the NADase activity at pertussis toxin [2] (6 minutes at 0-4°) is 76 pmol per μg per hour; on pertussis toxin [2] (18 hours at 0-4°), 35 pmol per μg per hour. The “percent of activity with no addition to second incubation” value (from here on “percent of activity with no addition”) worked out at 79% at pertussis toxin [2] (6 minutes at 0-4°) and 36% at pertussis toxin [2] (18 hours at 0-4°).

`Nc1ccn([C@@H]2O[C@H](COP(=O)(O)OP(=O)(O)OP(=O)(O)O)[C@@H](O)[C@H]2O)c(=O)n1` [CTP]: the Emax at 1000 µM on pertussis toxin [1] was determined as 103 ± 9%.

Regarding `O=P(O)(O)OC(CO)CO` [2-glycerol-P], the Emax at 1000 µM at pertussis toxin [1] is -1 ± 3%.

Consider `Nc1ncnc2c1ncn2[C@@H]1O[C@H](CO)[C@@H](O)[C@H]1O` [adenosine], for which, on pertussis toxin [1], the “Stimulation (activation) of pertussis toxin, in words” value (shortened to “Stimulation (activation)”) is “ineffective” and the Emax at 1000 µM is 2 ± 2%. Besides, at pertussis toxin [3] (adenosine 1 mM), the “Effect on the dose-response relationship of ATP or pyrophosphate” value is on record as “failed to significantly alter”.

Turning to `Nc1ncnc2c1ncn2[C@@H]1O[C@H](COP(=O)(O)OP(=O)(O)OP(=O)(O)O)[C@@H](O)[C@H]1O` [ATP], the “Stimulation (activation)” value at pertussis toxin [1] is “effective”. The “NADase activity in the presence of 1 mM ATP” value at pertussis toxin [1] (two trials, without ATP 44 and 18) was 111 units per microgram toxin and 97 units per microgram toxin. The remaining activity at 1000 µM on pertussis toxin [4] came to 13%. In addition, the EC50 was 0.2 µM on pertussis toxin [3] (setting [5]) and around 0.2 µM at pertussis toxin [3] (read-out: activation constant).

Consider `O=P1([O-])OP(=O)([O-])OP(=O)([O-])O1.[Na+].[Na+].[Na+]` [trimeta-P, trimetaphosphate], for which, on pertussis toxin [1], the “Fractional Activation” value is 0.69 ± .22. The “fraction of the ATP effect” value at pertussis toxin [3] (FIGS. 1A and 1B) is recorded as 0.3. Besides, the EC50 on pertussis toxin [3] (setting [5]) was at least 260 µM.

As to `O=c1ccn([C@@H]2O[C@H](COP(=O)(O)OP(=O)(O)OP(=O)(O)O)[C@@H](O)[C@H]2O)c(=O)[nH]1` [UTP], the Emax at 1000 µM at pertussis toxin [1] was determined as 92 ± 3%. The EC50 on pertussis toxin [3] (setting [5]) was determined as 15 µM.

As to `O=P(O)(O)O` [P, phosphate], on pertussis toxin [1], the “Stimulation (activation)” value is “ineffective” and the “Fractional Activation” value is on record as 0.01 ± .01.

Regarding `O=c1[nH]cnc2c1ncn2[C@@H]1O[C@H](COP(=O)(O)OP(=O)(O)OP(=O)(O)O)[C@@H](O)[C@H]1O` [ITP], on pertussis toxin [1], the Emax at 1000 µM worked out at 85 ± 1%.

Turning to `O=C(O)CCl` [chloroacetate], at pertussis toxin [2] (6 minutes at 0-4°), the NADase activity is 86 pmol per μg per hour and the “percent of activity with no addition” value is reported as 91%. In addition, at pertussis toxin [2] (18 hours at 0-4°), the NADase activity stood at 85 pmol per μg per hour and the “percent of activity with no addition” value came to 87%.

`NC(COP(=O)(O)O)C(=O)O` (stereo not shown) [serine-P]: on pertussis toxin [1], the Emax at 1000 µM was -4 ± 2%.

For `Nc1ncnc2c1ncn2[C@@H]1O[C@H](COP(=O)(O)OP(=O)(O)O)[C@@H](O)[C@H]1O` [ADP], at pertussis toxin [1], the “Stimulation (activation)” value is listed as “effective” and the Emax at 1000 µM worked out at 107 ± 6%. Besides, the EC50 at pertussis toxin [3] (setting [5]) came out at 6 µM.

With `O=P(O)(O)OC[C@H]1OC(O)[C@H](O)[C@@H](O)[C@@H]1O` (stereo partly shown) [glucose-6-P, glucose 6-phosphate], on pertussis toxin [1], the “Stimulation (activation)” value was “ineffective” and the Emax at 1000 µM was -3 ± 2%.

Regarding `Nc1nc2c(ncn2[C@@H]2O[C@H](COP(=O)(O)OP(=O)(O)OP(=O)(O)O)[C@@H](O)[C@H]2O)c(=O)[nH]1` [GTP], on pertussis toxin [1], the Emax at 1000 µM stood at 87 ± 1%. Also, the EC50 on pertussis toxin [3] (setting [5]) was 35 µM.

For the compound `CC(OP(=O)(O)O)C(N)C(=O)O` (stereo not shown) [threonine-P], at pertussis toxin [1], the Emax at 1000 µM was 1 ± 1%.

Consider `O=P(O)(O)OP(=O)(O)OP(=O)(O)OP(=O)(O)O` [tetrapoly-P, tetrapolyphosphate], for which, at pertussis toxin [1], the “Fractional Activation” value is recorded as 0.92 ± .12. Besides, at pertussis toxin [3] (FIGS. 1A and 1B), the “fraction of the ATP effect” value worked out at 0.4. Besides, the EC50 at pertussis toxin [3] (setting [5]) was at least 170 µM.

As to `O=P(O)(O)OP(=O)(O)OP(=O)(O)O` [tripoly-P, tripolyphosphate], the “Fractional Activation” value on pertussis toxin [1] is recorded as 0.98 ± .14. The “fraction of the ATP effect” value on pertussis toxin [3] (FIGS. 1A and 1B) is reported as 0.6.

For `Cc1ncc(COP(=O)(O)O)c(C=O)c1O` [pyridoxal-P], on pertussis toxin [1], the Emax at 1000 µM is 53 ± 6%.

Take `O=P(O)(O)OP(=O)(O)O` [pyro-P, pyrophosphate]: at pertussis toxin [1], the “Stimulation (activation)” value was “effective” and the “Fractional Activation” value is recorded as 0.85 ± .11. In addition, the “fraction of the ATP effect” value at pertussis toxin [3] (FIGS. 1A and 1B) was found to be 0.7.

Regarding `Nc1ncnc2c1ncn2[C@@H]1O[C@H](COP(=O)(O)O)[C@@H](O)[C@H]1O` [AMP], the Emax at 1000 µM on pertussis toxin [1] was 26 ± 9%.

The values are drawn from patent US5032398A, “Selective modification of the catalytic subunit of pertussis toxin” (priority 1986, dated 1991).
